EC50 and CC50 data for 21 compounds are collected here from patent US11236087B2, “Highly active pyrazolo-piperidine substituted indole-2-carboxamides active against the hepatitis B virus (HBV)” (AiCuris GmbH & Co. KG, priority 2017, dated 2022).

One data set relates to HBV. Description: Determination of HBV DNA from the supernatants of HepAD38 cells (anti-HBV activity). Type of data set: cell-based, hepatitis B virus. Particulars: Hepatitis B virus, 144 h; HBV DNA in HepAD38 supernatant, day 6, qPCR; read-out: Cell Activity (EC50). Here is the method: Determination of HBV DNA from the Supernatants of HepAD38 Cells
The anti-HBV activity was analysed in the stable transfected cell line HepAD38, which has been described to secrete high levels of HBV virion particles (Ladner et al., 1997). In brief, HepAD38 cells were cultured at 37° C. at 5% CO2 and 95% humidity in 200 μl maintenance medium, which was Dulbecco's modified Eagle's medium/Nutrient Mixture F-12 (Gibco, Karlsruhe), 10% fetal bovine serum (PAN Biotech Aidenbach) supplemented with 50 μg/ml penicillin/streptomycin (Gibco, Karlsruhe), 2 mM L-glutamine (PAN Biotech, Aidenbach), 400 μg/ml G418 (AppliChem, Darmstadt) and 0.3 μg/ml tetracycline. Cells were subcultured once a week in a 1:5 ratio, but were usually not passaged more than ten times. For the assay 60,000 cells were seeded in maintenance medium without any tetracycline into each well of a 96-well plate and treated with serial half-log dilutions of test compound. To minimize edge effects the outer 36 wells of the plate were not used but were filled with assay medium. On each assay plate six wells for the virus control (untreated HepAD38 cells) and six wells for the cell control (HepAD38 cells treated with 0.3 μg/ml tetracycline) were allocated, respectively. In addition, one plate set with reference inhibitors like BAY 41-4109, entecavir, and lamivudine instead of screening compounds were prepared in each experiment. In general, experiments were performed thrice in triplicates. At day 6 HBV DNA from 100 μl filtrated cell culture supernatant (AcroPrep Advance 96 Filter Plate, […] Supor membran, PALL GmbH, Dreieich) was automatically purified on the MagNa Pure LC instrument using the MagNA Pure 96 DNA and Viral NA Small Volume Kit (Roche Diagnostics, Mannheim) according to the instructions of the manufacturer. EC50 values were calculated from relative copy numbers of HBV DNA In brief, 5 μl of the 100 μl eluate containing HBV DNA were subjected to PCR LC480 Probes Master Kit (Roche) together with 1 μM antisense primer […], 0.5 μM sense primer […], 0.3 μM hybprobes […]-FL and LC640-[…]-PH (TIBMoBiol, Berlin) to a final volume of 12.5 μl. The PCR was performed on the Light Cycler 480 real time system (Roche Diagnostics, Mannheim) using the following protocol: Pre-incubation for 1 min at 95° C., amplification: 40 cycles×(10 sec at 95° C., 50 sec at 60° C., 1 sec at 70° C.), cooling for 10 sec at 40° C. Viral load was quantitated against known standards using HBV plasmid DNA of pCH-9/3091 (Nassal et al., 1990, Cell 63: 1357-1363) and the LightCycler 480 SW 1.5 software (Roche Diagnostics, Mannheim) and EC50 values were calculated using non-linear regression with GraphPad Prism 6 (GraphPad Software Inc., La Jolla, USA).
In general terms: Real-time PCR tracks product formation cycle by cycle.

A short description of data set [1]: Cell viability assay (AlamarBlue) in HepAD38 cells. The following applies: human. (In general: Resazurin is reduced to fluorescent resorufin, in cell work by metabolically active cells.)

What is called EC50 is the concentration at which the effect is half-maximal. The term CC50 denotes the concentration at which the toxic effect on the cells reaches its halfway point. A lower CC50 goes with greater toxicity to the cells.

SMILES strings stand for the structures.

For `CN(C(=O)c1n[nH]c2c1CN(C(=O)c1cc3ccccc3[nH]1)CC2)C1(COC(=O)c2ccccc2)CC1` [Example 219, {1-[N-methyl 5-(1H-indole-2-carbonyl)-1H,4H,5H,6H,7H-pyrazolo[4,3-c]pyridine-3-amido]cyclopropyl}methyl benzoate], the EC50 with HBV is below 1 µM. In data set [1], this compound showed a CC50 at 6 days above 10 µM.
The like results for `O=C(NC1CC1)c1n[nH]c2c1CN(C(=O)c1cc3ccccc3[nH]1)CC2` [Example 220, N-cyclopropyl-5-(1H-indole-2-carbonyl)-1H,4H,5H,6H,7H-pyrazolo[4,3-c]pyridine-3-carboxamide] were, in that order, 1 to 25 µM and above 10 µM.
The like results for `CN(C(=O)c1n[nH]c2c1CN(C(=O)c1cc3ccccc3[nH]1)CC2)C1(c2ccccc2)CC1` [Example 221, 5-(1H-indole-2-carbonyl)-N-methyl-N-(1-phenylcyclopropyl)-1H,4H,5H,6H,7H-pyrazolo[4,3-c]pyridine-3-carboxamide] were, in that order, below 1 µM and above 10 µM.
On to `O=C(c1cc2ccccc2[nH]1)N1CCc2[nH]nc(C(=O)N3CC(F)(F)C3)c2C1` [Example 222, 2-[3-(3,3-difluoroazetidine-1-carbonyl)-1H,4H,5H,6H,7H-pyrazolo[4,3-c]pyridine-5-carbonyl]-1H-indole], for which the 50% effective concentration (EC50) in the data set with HBV is below 1 µM. Besides, the CC50 at 6 days in data set [1] is above 10 µM.
On to `O=C(c1cc2ccccc2[nH]1)N1CCc2[nH]nc(C(=O)N3CC(F)(F)C(F)(F)C3)c2C1` [Example 223, 2-[3-(3,3,4,4-tetrafluoropyrrolidine-1-carbonyl)-1H,4H,5H,6H,7H-pyrazolo[4,3-c]pyridine-5-carbonyl]-1H-indole], for which, in the data set on HBV, the EC50 lay within 1 to 25 µM. Further, in data set [1], the CC50 at 6 days was above 10 µM.
The like results for `O=C(c1cc2ccccc2[nH]1)N1CCc2[nH]nc(C(=O)N3CC[C@H](F)C3)c2C1` [Example 224, 2-{3-[(3S)-3-fluoropyrrolidine-1-carbonyl]-1H,4H,5H,6H,7H-pyrazolo[4,3-c]pyridine-5-carbonyl}-1H-indole] were, in that order, below 1 µM and above 10 µM.
The like results for `O=C(c1cc2ccccc2[nH]1)N1CCc2[nH]nc(C(=O)N3CC[C@@H](F)C3)c2C1` [Example 225, 2-{3-[(3R)-3-fluoropyrrolidine-1-carbonyl]-1H,4H,5H,6H,7H-pyrazolo[4,3-c]pyridine-5-carbonyl}-1H-indole] were, in that order, below 1 µM and above 10 µM.
With `COC(=O)CC1(N(C)C(=O)c2n[nH]c3c2CN(C(=O)c2cc4ccccc4[nH]2)CC3)CC1` [Example 226, methyl 2-{1-[N-methyl 5-(1H-indole-2-carbonyl)-1H,4H,5H,6H,7H-pyrazolo[4,3-c]pyridine-3-amido]cyclopropyl}acetate], the half-maximal effective concentration (EC50) in the data set with HBV lay within 1 to 25 µM. This compound also returned a CC50 at 6 days in data set [1] above 10 µM.
Consider `CCc1cc(F)cc2[nH]c(C(=O)N3CCc4[nH]nc(C(=O)N5CCC(F)(F)C5)c4C3)cc12` [Example 227, 2-[3-(3,3-difluoropyrrolidine-1-carbonyl)-1H,4H,5H,6H,7H-pyrazolo[4,3-c]pyridine-5-carbonyl]-4-ethyl-6-fluoro-1H-indole], for which, in the data set with HBV, the EC50 is below 1 µM. Moreover, the CC50 at 6 days in data set [1] was above 10 µM.
Turning to `CCc1cccc2[nH]c(C(=O)N3CCc4[nH]nc(C(=O)N5CCC(F)(F)C5)c4C3)cc12` [Example 228, 2-[3-(3,3-difluoropyrrolidine-1-carbonyl)-1H,4H,5H,6H,7H-pyrazolo[4,3-c]pyridine-5-carbonyl]-4-ethyl-1H-indole], in the data set with HBV, the EC50 was below 1 µM. In addition, the cytotoxic concentration (CC50) at 6 days in data set [1] is above 10 µM.
The like results for `O=C(c1cc2c(Cl)cc(F)cc2[nH]1)N1CCc2[nH]nc(C(=O)N3CCC(F)(F)C3)c2C1` [Example 229, 4-chloro-2-[3-(3,3-difluoropyrrolidine-1-carbonyl)-1H,4H,5H,6H,7H-pyrazolo[4,3-c]pyridine-5-carbonyl]-6-fluoro-1H-indole] were, in that order, below 1 µM and above 10 µM.
Consider `O=C(c1cc2c(Cl)cccc2[nH]1)N1CCc2[nH]nc(C(=O)N3CCC(F)(F)C3)c2C1` [Example 230, 4-chloro-2-[3-(3,3-difluoropyrrolidine-1-carbonyl)-1H,4H,5H,6H,7H-pyrazolo[4,3-c]pyridine-5-carbonyl]-1H-indole], for which, in the data set on HBV, the EC50 was below 1 µM. In addition, the 50% cytotoxic concentration (CC50) at 6 days in data set [1] was above 10 µM.
The like results for `O=C(c1cc2c(F)c(F)ccc2[nH]1)N1CCc2[nH]nc(C(=O)N3CCC(F)(F)C3)c2C1` [Example 231, 2-[3-(3,3-difluoropyrrolidine-1-carbonyl)-1H,4H,5H,6H,7H-pyrazolo[4,3-c]pyridine-5-carbonyl]-4,5-difluoro-1H-indole] were, in that order, below 1 µM and above 10 µM.
For the compound `CC(=O)N1CCN(C(=O)c2[nH]nc3c2CN(C(=O)c2cc4ccccc4[nH]2)CC3)C2(CC2)C1` [Example 236, 1-{4-[5-(1H-indole-2-carbonyl)-2H,4H,5H,6H,7H-pyrazolo[4,3-c]pyridine-3-carbonyl]-4,7-diazaspiro[2.5]octan-7-yl}ethan-1-one], the concentration for a half-maximal effect (EC50) in the data set with HBV fell in the range of 1 to 25 µM. Besides, in data set [1], the CC50 at 6 days is above 10 µM.
The like results for `CN(C(=O)c1n[nH]c2c1CN(C(=O)c1cc3ccccc3[nH]1)CC2)C1(CCC(N)=O)CC1` [Example 237, N-[1-(2-carbamoylethyl)cyclopropyl]-5-(1H-indole-2-carbonyl)-N-methyl-1H,4H,5H,6H,7H-pyrazolo[4,3-c]pyridine-3-carboxamide] were, in that order, below 100 µM and above 10 µM.
The like results for `CN(C(=O)c1n[nH]c2c1CN(C(=O)c1cc3c(F)cc(F)cc3[nH]1)CC2)C1(CO)CC1` [Example 238, 5-(4,6-difluoro-1H-indole-2-carbonyl)-N-[1-(hydroxymethyl)cyclopropyl]-N-methyl-1H,4H,5H,6H,7H-pyrazolo[4,3-c]pyridine-3-carboxamide] were, in that order, below 1 µM and above 10 µM.
The like results for `CN(C(=O)c1n[nH]c2c1CN(C(=O)c1cc3c(Cl)c(F)ccc3[nH]1)CC2)C1(CO)CC1` [Example 239, 5-(4-chloro-5-fluoro-1H-indole-2-carbonyl)-N-[1-(hydroxymethyl)cyclopropyl]-N-methyl-1H,4H,5H,6H,7H-pyrazolo[4,3-c]pyridine-3-carboxamide] were, in that order, below 1 µM and above 10 µM.
In the case of `CN(C(=O)c1n[nH]c2c1CN(C(=O)c1cc3c(F)c(F)ccc3[nH]1)CC2)C1(CO)CC1` [Example 240, 5-(4,5-difluoro-1H-indole-2-carbonyl)-N-[1-(hydroxymethyl)cyclopropyl]-N-methyl-1H,4H,5H,6H,7H-pyrazolo[4,3-c]pyridine-3-carboxamide], in the data set with HBV, the concentration for a half-maximal effect (EC50) is below 1 µM. In data set [1], the cytotoxic concentration (CC50) at 6 days is above 10 µM.
The like results for `CN(C(=O)c1n[nH]c2c1CN(C(=O)c1cc3c(Cl)cc(F)cc3[nH]1)CC2)C1(CO)CC1` [Example 241, 5-(4-chloro-6-fluoro-1H-indole-2-carbonyl)-N-[1-(hydroxymethyl)cyclopropyl]-N-methyl-1H,4H,5H,6H,7H-pyrazolo[4,3-c]pyridine-3-carboxamide] were, in that order, below 1 µM and above 10 µM.
The like results for `CN(C(=O)c1n[nH]c2c1CN(C(=O)c1cc3cc(F)c(Cl)cc3[nH]1)CC2)C1(CO)CC1` [Example 242, 5-(6-chloro-5-fluoro-1H-indole-2-carbonyl)-N-[1-(hydroxymethyl)cyclopropyl]-N-methyl-1H,4H,5H,6H,7H-pyrazolo[4,3-c]pyridine-3-carboxamide] were, in that order, below 1 µM and above 10 µM.
Consider `Cc1cc(F)cc2[nH]c(C(=O)N3CCc4[nH]nc(C(=O)N(C)C5(CO)CC5)c4C3)cc12` [Example 243, 5-(6-fluoro-4-methyl-1H-indole-2-carbonyl)-N-[1-(hydroxymethyl)cyclopropyl]-N-methyl-1H,4H,5H,6H,7H-pyrazolo[4,3-c]pyridine-3-carboxamide], for which, in the data set on HBV, the EC50 was below 1 µM. The same compound had a cytotoxic concentration (CC50) at 6 days in data set [1] above 10 µM.
